pKi: −log10 of the molar value.
How the values were obtained:
Test in all cases: binding to VI16742 beads (HeLa lysate, SILAC MS)
MAP2K6 (IPI00003814) = biological target: T1, MAP2K6 (IPI00003814) (Homo sapiens, UniProt P52564)
T1 construct: endogenous in cells; host or cells: HeLa S3
T1 sequence (P52564 1-334): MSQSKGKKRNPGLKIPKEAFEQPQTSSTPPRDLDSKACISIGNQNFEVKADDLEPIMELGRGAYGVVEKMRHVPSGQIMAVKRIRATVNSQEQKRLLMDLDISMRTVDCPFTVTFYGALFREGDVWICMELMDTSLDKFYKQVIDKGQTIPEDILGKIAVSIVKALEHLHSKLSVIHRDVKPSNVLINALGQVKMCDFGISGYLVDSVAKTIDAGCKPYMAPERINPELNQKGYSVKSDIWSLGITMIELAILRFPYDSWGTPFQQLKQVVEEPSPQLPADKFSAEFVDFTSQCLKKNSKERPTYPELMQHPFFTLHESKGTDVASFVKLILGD
Source text: (§1) In an alternative implementation of the chemical proteomic approach according to the invention, the broadly-selective pyrido[2,3-d]pyrimidine-based kinase inhibitor VI16742 has been used for affinity capture (FIG. 10a). […] As shown by gene ontology analysis, the corresponding molecular functions were highly over-represented in proteins specifically retained by the inhibitor resin (FIG. 10b).

[1] = biological target: p38a (MAPK14, IPI00221141) (Homo sapiens, UniProt Q16539)
Sequence of p38a (MAPK14, IPI00221141) (Q16539 1-360 isoform Q16539-2): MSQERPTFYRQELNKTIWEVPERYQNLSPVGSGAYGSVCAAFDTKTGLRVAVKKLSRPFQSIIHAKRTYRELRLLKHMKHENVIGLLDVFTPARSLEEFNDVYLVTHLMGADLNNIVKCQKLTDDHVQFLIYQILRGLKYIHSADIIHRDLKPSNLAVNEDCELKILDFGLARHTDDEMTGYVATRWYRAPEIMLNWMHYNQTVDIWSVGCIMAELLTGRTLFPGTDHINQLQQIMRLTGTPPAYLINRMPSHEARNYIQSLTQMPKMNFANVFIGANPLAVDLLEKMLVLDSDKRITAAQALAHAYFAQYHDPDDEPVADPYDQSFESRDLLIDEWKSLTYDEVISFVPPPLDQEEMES
Source text: as §1

[2] = biological target: T2, TNIK/ZC2 (TNIK, IPI00514275) (Homo sapiens, UniProt Q9UKE5)
T2 construct: endogenous in cells; host or cells: HeLa S3
Source text: as §1

PKN2 (IPI00002804) = biological target: T3, PKN2 (IPI00002804) (Homo sapiens, UniProt Q16513)
T3 construct: endogenous in cells; host or cells: HeLa S3
Source text: as §1

LOK (STK10, IPI00304742) = biological target: T4, LOK (STK10, IPI00304742) (Homo sapiens, UniProt O94804)
T4 construct: endogenous in cells; host or cells: HeLa S3
Source text: as §1

MET (IPI00294528) = biological target: T5, MET (IPI00294528) (Homo sapiens, UniProt P08581)
T5 construct: endogenous in cells; host or cells: HeLa S3 cell lysate
T5 sequence (P08581 25-1390): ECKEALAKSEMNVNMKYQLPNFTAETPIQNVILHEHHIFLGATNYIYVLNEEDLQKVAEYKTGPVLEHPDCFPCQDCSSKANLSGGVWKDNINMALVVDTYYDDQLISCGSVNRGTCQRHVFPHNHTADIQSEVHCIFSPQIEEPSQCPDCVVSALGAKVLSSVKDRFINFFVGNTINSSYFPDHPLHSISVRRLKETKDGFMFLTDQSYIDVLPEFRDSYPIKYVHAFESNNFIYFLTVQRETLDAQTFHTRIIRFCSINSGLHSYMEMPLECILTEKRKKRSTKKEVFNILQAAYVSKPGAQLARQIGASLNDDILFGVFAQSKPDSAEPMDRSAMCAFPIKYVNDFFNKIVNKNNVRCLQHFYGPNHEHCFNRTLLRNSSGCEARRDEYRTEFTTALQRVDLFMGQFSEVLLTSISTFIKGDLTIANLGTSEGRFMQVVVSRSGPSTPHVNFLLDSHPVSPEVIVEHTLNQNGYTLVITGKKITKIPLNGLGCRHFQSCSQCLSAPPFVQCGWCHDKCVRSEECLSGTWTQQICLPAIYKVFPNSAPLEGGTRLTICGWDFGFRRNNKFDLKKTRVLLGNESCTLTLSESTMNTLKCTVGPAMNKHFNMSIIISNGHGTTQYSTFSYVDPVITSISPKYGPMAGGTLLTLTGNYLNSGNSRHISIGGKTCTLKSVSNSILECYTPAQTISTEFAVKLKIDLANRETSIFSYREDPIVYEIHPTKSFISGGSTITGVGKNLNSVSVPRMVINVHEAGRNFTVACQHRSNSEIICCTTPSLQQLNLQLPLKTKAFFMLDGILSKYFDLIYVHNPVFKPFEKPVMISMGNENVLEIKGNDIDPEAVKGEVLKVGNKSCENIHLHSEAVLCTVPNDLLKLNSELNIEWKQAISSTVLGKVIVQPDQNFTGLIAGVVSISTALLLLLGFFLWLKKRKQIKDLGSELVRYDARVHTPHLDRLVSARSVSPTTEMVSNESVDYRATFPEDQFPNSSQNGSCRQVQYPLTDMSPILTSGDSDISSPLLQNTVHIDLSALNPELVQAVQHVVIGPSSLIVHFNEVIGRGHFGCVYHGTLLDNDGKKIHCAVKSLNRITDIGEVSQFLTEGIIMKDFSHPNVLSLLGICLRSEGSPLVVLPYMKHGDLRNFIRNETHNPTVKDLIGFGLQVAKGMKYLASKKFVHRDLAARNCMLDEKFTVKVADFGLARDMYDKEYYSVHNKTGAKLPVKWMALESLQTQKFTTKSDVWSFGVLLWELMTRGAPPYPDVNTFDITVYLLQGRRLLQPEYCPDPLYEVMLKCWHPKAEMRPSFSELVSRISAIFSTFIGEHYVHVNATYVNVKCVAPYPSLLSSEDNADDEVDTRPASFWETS
Source text: as §1

[3] = biological target: T6, HGK/ZC1 (MAP4K4, IPI00604647) (Homo sapiens, UniProt O95819)
T6 construct: endogenous in cells; host or cells: HeLa S3
T6 sequence (O95819 whole entry): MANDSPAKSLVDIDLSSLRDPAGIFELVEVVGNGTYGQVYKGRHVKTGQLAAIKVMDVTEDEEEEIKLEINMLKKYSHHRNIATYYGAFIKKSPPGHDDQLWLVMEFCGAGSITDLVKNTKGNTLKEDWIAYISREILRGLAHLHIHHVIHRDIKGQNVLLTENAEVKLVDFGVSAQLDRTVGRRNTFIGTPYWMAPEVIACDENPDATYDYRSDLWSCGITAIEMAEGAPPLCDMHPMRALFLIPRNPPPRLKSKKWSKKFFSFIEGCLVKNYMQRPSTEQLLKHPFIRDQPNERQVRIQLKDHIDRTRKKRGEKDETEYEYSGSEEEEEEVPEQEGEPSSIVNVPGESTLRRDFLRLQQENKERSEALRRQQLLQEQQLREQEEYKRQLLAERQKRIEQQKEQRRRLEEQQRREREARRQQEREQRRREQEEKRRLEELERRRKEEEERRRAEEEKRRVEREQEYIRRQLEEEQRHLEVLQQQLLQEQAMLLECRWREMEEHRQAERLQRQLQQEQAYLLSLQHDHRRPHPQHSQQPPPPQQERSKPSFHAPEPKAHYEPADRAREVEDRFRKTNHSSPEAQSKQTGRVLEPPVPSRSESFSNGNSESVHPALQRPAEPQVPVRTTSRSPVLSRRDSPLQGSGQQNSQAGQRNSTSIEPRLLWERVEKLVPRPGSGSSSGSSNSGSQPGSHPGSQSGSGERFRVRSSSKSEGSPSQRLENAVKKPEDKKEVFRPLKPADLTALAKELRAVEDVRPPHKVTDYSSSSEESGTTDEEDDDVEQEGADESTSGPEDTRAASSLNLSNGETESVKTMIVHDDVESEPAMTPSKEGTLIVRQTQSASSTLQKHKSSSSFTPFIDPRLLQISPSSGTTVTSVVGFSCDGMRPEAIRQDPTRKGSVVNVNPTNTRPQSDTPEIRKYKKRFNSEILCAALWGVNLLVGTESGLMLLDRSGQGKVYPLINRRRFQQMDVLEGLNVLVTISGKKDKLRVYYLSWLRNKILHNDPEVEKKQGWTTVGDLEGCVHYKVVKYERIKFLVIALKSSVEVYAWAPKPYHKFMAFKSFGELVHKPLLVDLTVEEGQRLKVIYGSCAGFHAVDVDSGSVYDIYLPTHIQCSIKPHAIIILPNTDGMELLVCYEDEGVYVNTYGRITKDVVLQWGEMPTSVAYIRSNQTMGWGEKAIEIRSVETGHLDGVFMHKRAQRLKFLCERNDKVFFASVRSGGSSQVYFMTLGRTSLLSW
Source text: as §1

ILK (IPI00013219) = biological target: T7, ILK (IPI00013219) (Homo sapiens, UniProt Q13418)
T7 construct: endogenous in cells; host or cells: HeLa S3
T7 sequence (Q13418 1-452): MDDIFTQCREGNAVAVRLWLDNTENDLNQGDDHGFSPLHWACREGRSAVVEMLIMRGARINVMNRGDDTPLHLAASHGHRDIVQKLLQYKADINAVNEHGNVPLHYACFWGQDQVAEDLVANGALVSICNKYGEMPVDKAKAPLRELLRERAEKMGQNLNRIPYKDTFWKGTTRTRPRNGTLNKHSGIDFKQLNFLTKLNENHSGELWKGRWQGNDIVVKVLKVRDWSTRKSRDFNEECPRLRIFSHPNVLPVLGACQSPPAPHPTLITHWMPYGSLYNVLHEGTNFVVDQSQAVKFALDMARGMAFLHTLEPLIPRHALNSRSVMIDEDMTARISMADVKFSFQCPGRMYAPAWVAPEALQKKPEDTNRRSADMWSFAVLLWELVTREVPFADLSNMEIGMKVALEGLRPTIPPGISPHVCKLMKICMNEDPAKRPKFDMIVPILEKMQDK
Source text: as §1

[4] = biological target: T8, MRCKb (CDC42BPB, IPI00477763) (Homo sapiens, UniProt Q9Y5S2)
T8 construct: endogenous in cells; host or cells: HeLa S3
T8 sequence (Q9Y5S2 whole entry): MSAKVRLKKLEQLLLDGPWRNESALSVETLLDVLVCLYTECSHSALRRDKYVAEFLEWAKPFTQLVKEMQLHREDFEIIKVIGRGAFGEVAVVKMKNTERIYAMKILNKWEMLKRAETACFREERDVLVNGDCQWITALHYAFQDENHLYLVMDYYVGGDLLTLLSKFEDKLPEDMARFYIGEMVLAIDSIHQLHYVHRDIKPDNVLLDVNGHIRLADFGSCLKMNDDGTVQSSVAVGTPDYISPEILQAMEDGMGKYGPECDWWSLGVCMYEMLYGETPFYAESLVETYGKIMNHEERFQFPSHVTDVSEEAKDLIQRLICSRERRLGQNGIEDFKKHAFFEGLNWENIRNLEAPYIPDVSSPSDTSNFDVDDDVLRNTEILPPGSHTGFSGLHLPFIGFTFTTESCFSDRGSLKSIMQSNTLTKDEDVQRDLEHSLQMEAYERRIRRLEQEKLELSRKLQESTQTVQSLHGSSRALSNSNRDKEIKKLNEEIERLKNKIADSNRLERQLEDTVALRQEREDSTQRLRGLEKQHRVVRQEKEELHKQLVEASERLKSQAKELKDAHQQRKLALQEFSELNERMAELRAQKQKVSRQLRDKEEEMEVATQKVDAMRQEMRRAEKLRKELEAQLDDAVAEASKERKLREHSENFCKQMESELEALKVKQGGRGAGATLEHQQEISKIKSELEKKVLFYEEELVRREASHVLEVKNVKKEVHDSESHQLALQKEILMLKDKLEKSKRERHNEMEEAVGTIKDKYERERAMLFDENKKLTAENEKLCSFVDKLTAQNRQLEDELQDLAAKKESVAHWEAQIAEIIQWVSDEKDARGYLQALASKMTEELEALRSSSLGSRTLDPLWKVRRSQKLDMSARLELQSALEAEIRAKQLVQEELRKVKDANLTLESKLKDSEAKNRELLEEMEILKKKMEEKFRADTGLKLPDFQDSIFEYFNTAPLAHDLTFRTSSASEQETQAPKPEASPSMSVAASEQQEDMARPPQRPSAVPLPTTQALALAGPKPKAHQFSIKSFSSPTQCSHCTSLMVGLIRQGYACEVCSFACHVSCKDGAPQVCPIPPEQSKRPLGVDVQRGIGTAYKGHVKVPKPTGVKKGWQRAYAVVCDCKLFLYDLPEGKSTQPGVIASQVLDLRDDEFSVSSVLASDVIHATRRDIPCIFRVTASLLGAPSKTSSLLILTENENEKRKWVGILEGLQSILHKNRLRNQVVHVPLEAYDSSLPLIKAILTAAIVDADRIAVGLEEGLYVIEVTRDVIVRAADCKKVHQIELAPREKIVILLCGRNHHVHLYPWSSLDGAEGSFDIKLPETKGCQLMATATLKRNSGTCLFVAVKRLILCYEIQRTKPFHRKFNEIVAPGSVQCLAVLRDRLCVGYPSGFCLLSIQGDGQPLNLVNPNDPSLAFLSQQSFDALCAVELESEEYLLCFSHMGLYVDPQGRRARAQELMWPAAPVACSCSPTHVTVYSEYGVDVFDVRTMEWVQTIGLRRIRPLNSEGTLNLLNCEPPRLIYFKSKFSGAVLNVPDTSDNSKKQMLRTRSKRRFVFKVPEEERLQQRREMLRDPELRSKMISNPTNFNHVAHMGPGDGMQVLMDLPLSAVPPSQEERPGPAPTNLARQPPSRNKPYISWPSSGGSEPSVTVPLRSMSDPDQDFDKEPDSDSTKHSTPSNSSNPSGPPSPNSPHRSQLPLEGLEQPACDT
Source text: as §1

[5] = control beads vs first incubation

## CC(C)n1c(=O)ccc2cnc(Nc3ccc(OCCN)cc3)nc21 [V16742]
MAP2K6 (IPI00003814); 3 mg vs 1 mg lysate
  r (3 MG/1 MG LYSATE): 2.41
MAP2K6 (IPI00003814); 5 h vs 2.5 h incubation time
  r (5 h/2.5 h INC. TIME): 1.36
MAP2K6 (IPI00003814); [5]
  rAVERAGE (CTRL/1 INC): 0.05
MAP2K6 (IPI00003814); immobilized VI16742
  pKi: 3.75
MAP2K6 (IPI00003814); second vs first incubation
  rAVERAGE (2 INC/1 INC): 0.77
[1]; 5 h vs 2.5 h incubation time
  r (5 h/2.5 h INC. TIME): 2.16
[1]; [5]
  rAVERAGE (CTRL/1 INC): 0.10
[1]; immobilized VI16742
  pKi: 4.03
[1]; second vs first incubation
  rAVERAGE (2 INC/1 INC): 0.64
[2]; 5 h vs 2.5 h incubation time
  r (5 h/2.5 h INC. TIME): 1.27
[2]; [5]
  rAVERAGE (CTRL/1 INC): 0.19
[2]; immobilized VI16742
  pKi: 3.97
[2]; second vs first incubation
  rAVERAGE (2 INC/1 INC): 0.67
PKN2 (IPI00002804); 3 mg vs 1 mg lysate
  r (3 MG/1 MG LYSATE): 2.87
PKN2 (IPI00002804); 5 h vs 2.5 h incubation time
  r (5 h/2.5 h INC. TIME): 1.35
PKN2 (IPI00002804); [5]
  rAVERAGE (CTRL/1 INC): 0.03
PKN2 (IPI00002804); immobilized VI16742
  pKi: 3.94
PKN2 (IPI00002804); second vs first incubation
  rAVERAGE (2 INC/1 INC): 0.69
LOK (STK10, IPI00304742); [5]
  rAVERAGE (CTRL/1 INC): 0.07
LOK (STK10, IPI00304742); immobilized VI16742
  pKi: 3.79
LOK (STK10, IPI00304742); second vs first incubation
  rAVERAGE (2 INC/1 INC): 0.76
MET (IPI00294528); [5]
  rAVERAGE (CTRL/1 INC): 0.08
MET (IPI00294528); immobilized VI16742
  pKi: 4.02
MET (IPI00294528); second vs first incubation
  rAVERAGE (2 INC/1 INC): 0.65
[3]; [5]
  rAVERAGE (CTRL/1 INC): 0.05
[3]; immobilized VI16742
  pKi: 4.12
[3]; second vs first incubation
  rAVERAGE (2 INC/1 INC): 0.59
ILK (IPI00013219); 5 h vs 2.5 h incubation time
  r (5 h/2.5 h INC. TIME): 1.47
ILK (IPI00013219); [5]
  rAVERAGE (CTRL/1 INC): 0.03
ILK (IPI00013219); immobilized VI16742
  pKi: 3.77
ILK (IPI00013219); second vs first incubation
  rAVERAGE (2 INC/1 INC): 0.77
[4]; 3 mg vs 1 mg lysate
  r (3 MG/1 MG LYSATE): 2.35
[4]; 5 h vs 2.5 h incubation time
  r (5 h/2.5 h INC. TIME): 1.34
[4]; [5]
  rAVERAGE (CTRL/1 INC): 0.06
[4]; immobilized VI16742
  pKi: 3.52
[4]; second vs first incubation
  rAVERAGE (2 INC/1 INC): 0.85

— patent publication US8959984B2, “Proteome-wide quantification of small molecule binding to cellular target proteins” (priority 2007, dated 2015)
